Target: T1, hNaV1.7 (Homo sapiens, UniProt Q15858)
T1 construct: expressed in transfected cells
Experiment: Patch voltage clamp electrophysiology (EP), Syncropatch 384PE, Nav1.7 in CHO cells;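 note: Nav1.7 stably expressed from cDNA in CHO cells, holding potential of −50 mV kept for the entire experiment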
Type: cell-based
Details: holding potential −50 mV, inhibition based on 7.5 min compound incubation, read-out: hNaV1.7 EP_SP

T1 sequence (Q15858 1-1977 isoform Q15858-3): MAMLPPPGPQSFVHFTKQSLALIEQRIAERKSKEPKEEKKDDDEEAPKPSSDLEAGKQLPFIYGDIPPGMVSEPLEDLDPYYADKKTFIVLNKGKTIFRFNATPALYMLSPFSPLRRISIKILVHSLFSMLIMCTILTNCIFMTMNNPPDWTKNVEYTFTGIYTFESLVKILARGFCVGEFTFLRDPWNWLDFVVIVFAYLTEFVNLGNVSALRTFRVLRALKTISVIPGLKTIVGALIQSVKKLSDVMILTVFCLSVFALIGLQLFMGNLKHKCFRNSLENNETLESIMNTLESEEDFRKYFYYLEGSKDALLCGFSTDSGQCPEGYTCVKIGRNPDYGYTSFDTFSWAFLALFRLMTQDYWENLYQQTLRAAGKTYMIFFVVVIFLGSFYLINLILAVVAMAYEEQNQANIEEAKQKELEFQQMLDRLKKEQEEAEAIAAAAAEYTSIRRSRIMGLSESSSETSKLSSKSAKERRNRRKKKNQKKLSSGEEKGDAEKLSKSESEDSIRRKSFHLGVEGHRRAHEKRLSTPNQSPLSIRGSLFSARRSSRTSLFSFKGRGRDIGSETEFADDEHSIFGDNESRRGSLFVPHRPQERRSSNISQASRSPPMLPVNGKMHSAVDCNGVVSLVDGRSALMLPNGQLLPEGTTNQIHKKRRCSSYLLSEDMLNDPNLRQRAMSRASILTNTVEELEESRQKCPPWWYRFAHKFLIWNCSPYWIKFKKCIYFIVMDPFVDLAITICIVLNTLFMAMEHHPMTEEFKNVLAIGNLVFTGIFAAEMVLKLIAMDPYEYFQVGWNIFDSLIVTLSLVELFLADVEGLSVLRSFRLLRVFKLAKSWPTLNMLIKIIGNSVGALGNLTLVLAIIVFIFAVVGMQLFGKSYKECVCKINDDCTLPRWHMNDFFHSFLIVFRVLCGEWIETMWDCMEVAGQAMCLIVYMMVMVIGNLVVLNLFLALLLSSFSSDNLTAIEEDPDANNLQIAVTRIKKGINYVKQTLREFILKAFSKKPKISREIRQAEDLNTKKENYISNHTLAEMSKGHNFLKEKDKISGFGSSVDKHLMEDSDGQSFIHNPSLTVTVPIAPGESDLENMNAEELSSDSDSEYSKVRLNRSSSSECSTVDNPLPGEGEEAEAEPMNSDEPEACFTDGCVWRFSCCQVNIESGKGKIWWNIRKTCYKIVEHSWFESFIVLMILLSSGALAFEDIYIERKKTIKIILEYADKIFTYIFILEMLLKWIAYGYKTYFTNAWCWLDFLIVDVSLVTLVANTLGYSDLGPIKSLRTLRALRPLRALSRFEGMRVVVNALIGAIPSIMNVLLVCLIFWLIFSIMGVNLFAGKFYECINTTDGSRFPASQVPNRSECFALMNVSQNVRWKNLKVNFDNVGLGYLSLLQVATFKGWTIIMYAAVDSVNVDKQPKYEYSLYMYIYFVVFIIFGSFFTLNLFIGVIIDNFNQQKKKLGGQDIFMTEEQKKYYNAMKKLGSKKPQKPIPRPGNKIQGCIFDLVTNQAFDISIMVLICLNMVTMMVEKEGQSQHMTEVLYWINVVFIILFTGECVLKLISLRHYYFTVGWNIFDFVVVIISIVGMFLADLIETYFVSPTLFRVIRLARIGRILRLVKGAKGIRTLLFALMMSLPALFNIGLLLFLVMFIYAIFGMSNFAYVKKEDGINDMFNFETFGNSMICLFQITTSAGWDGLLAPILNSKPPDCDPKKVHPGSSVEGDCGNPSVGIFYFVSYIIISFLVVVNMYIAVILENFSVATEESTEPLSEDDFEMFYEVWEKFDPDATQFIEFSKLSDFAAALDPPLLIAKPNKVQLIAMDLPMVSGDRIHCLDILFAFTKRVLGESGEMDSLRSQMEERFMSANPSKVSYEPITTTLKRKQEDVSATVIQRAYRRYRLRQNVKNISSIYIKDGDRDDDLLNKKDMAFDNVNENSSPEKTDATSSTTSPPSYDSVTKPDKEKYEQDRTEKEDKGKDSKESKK

IC50	Compound
230 nM	O=C(NS(=O)(=O)CCOCc1ccccc1)c1cc(Cl)c(OCC2CCCC2)cc1F [Example 274, N-((2-(benzyloxy)ethyl)sulfonyl)-5-chloro-4-(cyclopentylmethoxy)-2-fluorobenzamide]
83 nM	Cn1ccnc1COc1ccc(S(=O)(=O)NC(=O)c2cc(Cl)c(OCC3CCCC3)cc2F)cc1 [Example 312, 5-chloro-4-(cyclopentylmethoxy)-2-fluoro-N-((4-((1-methyl-1H-imidazol-2-yl)methoxy)phenyl)sulfonyl)benzamide]
32 nM	CN(C)C1(C)CCCN(c2cc(F)c(S(=O)(=O)NC(=O)c3cc(Cl)c(OCC4CCCC4)cc3F)c(F)c2)C1 (stereo not drawn) [Example 76, 5-chloro-4-(cyclopentylmethoxy)-N-((4-(3-(dimethylamino)-3-methylpiperidin-1-yl)-2,6-difluorophenyl)sulfonyl)-2-fluorobenzamide]
650 nM	CC(C)/C=C/c1cc2cnc(NS(=O)(=O)c3cc(Cl)c(N[C@H]4CCCC[C@@H]4N(C)C)cc3F)cc2n1C [Example 102, 5-chloro-4-(((1S,2S)-2-(dimethylamino)cyclohexyl)amino)-2-fluoro-N-(1-methyl-2-((E)-3-methylbut-1-en-1-yl)-1H-pyrrolo[3,2-c]pyridin-6-yl)benzenesulfonamide]
26 nM	CC[C@@H](C)S(=O)(=O)NC(=O)c1cc(Cl)c(OCC2CCCC2)cc1F (single isomer, unassigned) [Example 255]
330 nM	O=C(NS(=O)(=O)c1ccc2c(c1)CCCO2)c1cc(Cl)c(OCC2CCCC2)cc1F [Example 265, 5-chloro-N-(chroman-6-ylsulfonyl)-4-(cyclopentylmethoxy)-2-fluorobenzamide]
270 nM	O=C(NS(=O)(=O)c1ccc2c(c1)CCC2)c1cc(Cl)c(OCC2CCCC2)cc1F [Example 262, 5-chloro-4-(cyclopentylmethoxy)-N-((2,3-dihydro-1H-inden-5-yl)sulfonyl)-2-fluorobenzamide]
220 nM	O=C(NS(=O)(=O)c1ccc(Oc2ccccc2)cc1)c1cc(Cl)c(OCC2CCCC2)cc1F [Example 263, 5-chloro-4-(cyclopentylmethoxy)-2-fluoro-N-((4-phenoxyphenyl)sulfonyl)benzamide]
130 nM	O=C(NS(=O)(=O)c1ccc(OC2CC2)cc1)c1cc(Cl)c(OCC2CCCC2)cc1F [Example 276, 5-chloro-4-(cyclopentylmethoxy)-N-((4-cyclopropoxyphenyl)sulfonyl)-2-fluorobenzamide]
710 nM	O=C(NS(=O)(=O)c1ccc2c(c1)OCCCO2)c1cc(Cl)c(OCC2CCCC2)cc1F [Example 289, 5-chloro-4-(cyclopentylmethoxy)-N-((3,4-dihydro-2H-benzo[b][1,4]dioxepin-7-yl)sulfonyl)-2-fluorobenzamide]
110 nM	O=C(NS(=O)(=O)N1CCN2CCNCC2C1)c1cc(Cl)c(OCC2CCCC2)cc1F (stereo not drawn) [Example 23, 5-chloro-4-(cyclopentylmethoxy)-2-fluoro-N-((octahydro-2H-pyrazino[1,2-a]pyrazin-2-yl)sulfonyl)benzamide]
380 nM	C[C@H]1Cc2cc(S(=O)(=O)NC(=O)c3cc(Cl)c(OCC4CCCC4)cc3F)ccc2O1 [Example 270, (S)-5-chloro-4-(cyclopentylmethoxy)-2-fluoro-N-((2-methyl-2,3-dihydrobenzofuran-5-yl)sulfonyl)benzamide]
650 nM	N[C@H]1CCCCN(S(=O)(=O)NC(=O)c2cc(Cl)c(OCC3CCCC3)cc2F)C1 (single isomer, unassigned) [Example 219, 2,2,2-trifluoroacetate]
31 nM	CC(C)N1CC(OC2CCN(S(=O)(=O)NC(=O)c3cc(Cl)c(OCC4CCCC4)cc3F)CC2)C1 [Example 10, 5-chloro-4-(cyclopentylmethoxy)-2-fluoro-N-((4-((1-isopropylazetidin-3-yl)oxy)piperidin-1-yl)sulfonyl)benzamide]
730 nM	O=C(NS(=O)(=O)c1ccc(OCc2cc(F)cc(F)c2)cc1)c1cc(Cl)c(OCC2CCCC2)cc1F [Example 307, 5-chloro-4-(cyclopentylmethoxy)-N-((4-((3,5-difluorobenzyl)oxy)phenyl)sulfonyl)-2-fluorobenzamide]
690 nM	COc1cccc(S(=O)(=O)NC(=O)c2cc(Cl)c(OCC3CCCC3)cc2F)c1 [Example 245, 5-chloro-4-(cyclopentylmethoxy)-2-fluoro-N-((3-methoxyphenyl)sulfonyl)benzamide]
230 nM	O=C(NS(=O)(=O)Cc1ccc2ncccc2c1)c1cc(Cl)c(OCC2CCCC2)cc1F [Example 273, 5-chloro-4-(cyclopentylmethoxy)-2-fluoro-N-((quinolin-6-ylmethyl)sulfonyl)benzamide]
210 nM	N#Cc1ccc(S(=O)(=O)NC(=O)c2cc(Cl)c(OCC3CCCC3)cc2F)c(F)c1 [Example 272, 5-chloro-N-((4-cyano-2-fluorophenyl)sulfonyl)-4-(cyclopentylmethoxy)-2-fluorobenzamide]

IC50	Compound
340 nM	CN(C)[C@H]1CCCC[C@@H]1Oc1ccc(S(=O)(=O)Nc2noc3cc(OCC4CCCC4)c(C4CC4)cc23)c(F)c1 [Example 89, N-(6-(cyclopentylmethoxy)-5-cyclopropylbenzo[d]isoxazol-3-yl)-4-(((1S,2S)-2-(dimethylamino)cyclohexyl)oxy)-2-fluorobenzenesulfonamide]
940 nM	O=C(NS(=O)(=O)c1cnn(-c2ccccc2F)c1)c1cc(Cl)c(OCC2CCCC2)cc1F [Example 269, 5-chloro-4-(cyclopentylmethoxy)-2-fluoro-N-((1-(2-fluorophenyl)-1H-pyrazol-4-yl)sulfonyl)benzamide]
10 nM	CN(C)[C@H]1CCCC[C@@H]1Nc1cc(F)c(S(=O)(=O)NC(=O)c2cc(C3CC3)c(OCC3CCCC3)cc2F)c(F)c1 [Example 204, 4-(cyclopentylmethoxy)-5-cyclopropyl-N-((4-(((1S,2S)-2-(dimethylamino)cyclohexyl)amino)-2,6-difluorophenyl)sulfonyl)-2-fluorobenzamide]
170 nM	CN(C)[C@H]1CCCC[C@@H]1Nc1ccc(S(=O)(=O)Nc2nc3ncc(Br)cc3s2)c(F)c1 [Example 95, N-(6-bromothiazolo[4,5-b]pyridin-2-yl)-4-(((1S,2S)-2-(dimethylamino)-cyclohexyl)amino)-2-fluorobenzenesulfonamide]
250 nM	O=C(NS(=O)(=O)N1CCC(OC2CCNCC2)CC1)c1cc(Cl)c(OCC2CCCC2)cc1F [Example 53, 5-chloro-4-(cyclopentylmethoxy)-2-fluoro-N-((4-(piperidin-4-yloxy)piperidin-1-yl)sulfonyl) benzamide]
250 nM	O=C(NS(=O)(=O)N1CCC(OC2CNC2)CC1)c1cc(Cl)c(OCC2CCCC2)cc1F [Example 46, N-((4-(azetidin-3-yloxy)piperidin-1-yl)sulfonyl)-5-chloro-4-(cyclopentyl-methoxy)-2-fluorobenzamide]
220 nM	CN(C)[C@H]1CCCC[C@@H]1Oc1ccc(S(=O)(=O)NC(=O)c2cc(Cl)c(OCC3CCCC3)cc2F)c(F)c1 [Example 66, 5-chloro-4-(cyclopentylmethoxy)-N-((4-(((1S,2S)-2-(dimethylamino)-cyclohexyl)oxy)-2-fluorophenyl)sulfonyl)-2-fluorobenzamide]
210 nM	O=C(NS(=O)(=O)N1CC2(CCO2)C1)c1cc(Cl)c(OCC2CCCC2)cc1F [Example 228, N-((1-oxa-6-azaspiro[3.3]heptan-6-yl)sulfonyl)-5-chloro-4-(cyclopentylmethoxy)-2-fluorobenzamide]
15 nM	NC[C@@H]1CN(S(=O)(=O)NC(=O)c2cc(C3CC3)c(OCC3CCCC3)cc2F)CCO1 (single isomer, unassigned) [Example 25, 2,2,2-trifluoroacetate]
250 nM	O=C(NS(=O)(=O)c1ccc(OCc2ccc(F)cc2F)cc1)c1cc(Cl)c(OCC2CCCC2)cc1F [Example 317, 5-chloro-4-(cyclopentylmethoxy)-N-((4-((2,4-difluorobenzyl)oxy)phenyl)sulfonyl)-2-fluorobenzamide]
39 nM	CN(C)C1CCCN(c2ccc(S(=O)(=O)NC(=O)c3cc(Cl)c(OCC4CCCC4)cc3F)c(F)c2)C1 (stereo not drawn) [Example 205, 5-chloro-4-(cyclopentylmethoxy)-N-((4-(3-(dimethylamino)piperidin-1-yl)-2-fluorophenyl)sulfonyl)-2-fluorobenzamide]
40 nM	C[C@H]1CCCCN1S(=O)(=O)NC(=O)c1cc(Cl)c(OCC2CCCC2)cc1F (single isomer, unassigned) [Example 224]
60 nM	O=C(NS(=O)(=O)c1ccc(OCc2ccccc2)cc1F)c1cc(C2CC2)c(OCC2CCCC2)cc1F [Example 70, N-((4-(benzyloxy)-2-fluorophenyl)sulfonyl)-4-(cyclopentylmethoxy)-5-cyclopropyl-2-fluorobenzamide]
110 nM	CN1CC(OC2CCN(S(=O)(=O)NC(=O)c3cc(Cl)c(OCC4CCCC4)cc3F)CC2)C1 [Example 1, 5-chloro-4-(cyclopentylmethoxy)-2-fluoro-N-((4-((1-methylazetidin-3-yl)oxy)piperidin-1-yl)sulfonyl)benzamide]
770 nM	CCc1cccc(S(=O)(=O)NC(=O)c2cc(Cl)c(OCC3CCCC3)cc2F)c1 [Example 244, 5-chloro-4-(cyclopentylmethoxy)-N-((3-ethylphenyl)sulfonyl)-2-fluorobenzamide]
38 nM	Cn1cc(COc2ccc(S(=O)(=O)NC(=O)c3cc(Cl)c(OCC4CCCC4)cc3F)cc2)cn1 [Example 299, 5-chloro-4-(cyclopentylmethoxy)-2-fluoro-N-((4-((1-methyl-1H-pyrazol-4-yl)methoxy)phenyl)sulfonyl)benzamide]
280 nM	O=C(NS(=O)(=O)c1ccc(OCC2CNC2)cc1)c1cc(Cl)c(OCC2CCCC2)cc1F [Example 296, N-((4-(azetidin-3-ylmethoxy)phenyl)sulfonyl)-5-chloro-4-(cyclopentylmethoxy)-2-fluorobenzamide]

Compound	IC50
C[C@H]1CCc2ccccc2N1S(=O)(=O)NC(=O)c1cc(Cl)c(OCC2CCCC2)cc1F [(S) enantiomer of Example 18]	500 nM
